Reference: patent US20250326807A1, “CALPROTECTIN BINDING PEPTIDES” (Buehlmann Laboratories AG, priority 2022, published 2025)
Like-named read-outs stand apart in the source and are kept apart here. Ends that are not written are not given here.

Columns and labels:
[1] = system: human recombinant calprotectin; assay: Fluorescence polarization affinity measurement of fluorescein-labelled peptides; assay type: binding
Description: The reaction mixture was incubated at 30° C. for 1 hr, and the completion of the reaction was assessed by LCMS. The reaction was stopped by addition of HCOOH (200 μL) and the cyclized peptide was lyophilized. The final purification was performed as before with a reversed-phase C18 column (X-bridge peptide BEH C18 5 μm, 300 Å, 10×250 mm, Waters) applying a flow rate of 6 mL/min and an appropriate linear gradient in 40 min. Fractions containing the desired peptide were lyophilized. The purity of the peptides was assessed by analysing around 20 μg of peptide by RP-HPLC (1260 HPLC system, Agilent) using a C18 column (ZORBAX 300SB-C18, 5 μm, 300 Å, 4.6×250 mm, Agilent). Peptides were run at a flow rate of 1 mL min^−1 with a linear gradient of 0-100% of solvent B over 15 min (A: 94.9% H2O, 5% ACN and 0.1% TFA; B: 99.9% ACN and 0.1% TFA). The mass was determined by electrospray ionization mass spectrometry (ESI-MS) in positive ion mode on a single quadrupole liquid chromatography mass spectrometer (LCMS-2020, Shimadzu). In order to measure the affinity of selected and synthesized peptides in fluorescence polarization, calprotectin was serially diluted in 20 mM HEPES, 100 mM NaCl, 2 mM CaCl2, pH 7.5, 1 mM DTT with 0.01% v/v Tween-20. 16 μL of protein were added to 4 μL of the fluorescent peptide (20 nM final concentration) in 96-well microtiter plates (black, half-area). Fluorescence anisotropy was measured on a microwell plate reader (Infinite M200Pro, Tecan), with a filter for excitation at 485 nm and emission at 535 nm. Dissociation constant (Kd) was calculated using the following equation on Prism 5 (GraphPad): […]
were A is anisotropy, Af and Ab are the anisotropy values for free and bound ligand, respectively. [L]T is the concentration of total fluorescent ligand and [P]T the concentration of the protein.
Subsequent fluorescence polarization experiments were performed according to example 1.

[2] = biological target: T1, Calprotectin (Homo sapiens, UniProt P05109+P06702); assay: Sandwich ELISA with biotinylated calprotectin binding peptide and Strep-HRP; conditions: incubation times of 60 minutes
T1 sequence (P05109 1-93): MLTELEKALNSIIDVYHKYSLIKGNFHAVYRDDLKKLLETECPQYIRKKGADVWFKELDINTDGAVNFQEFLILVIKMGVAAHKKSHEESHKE
T1 sequence (P06702 1-114): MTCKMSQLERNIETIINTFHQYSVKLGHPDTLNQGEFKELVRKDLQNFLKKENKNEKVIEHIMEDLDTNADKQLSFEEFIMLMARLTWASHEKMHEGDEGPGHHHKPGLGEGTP
Description: The wells of 96 well Immulon 4 HBX-Extra High Binding plates (Thermo Fisher Scientific) were coated by overnight incubation at 4° C. with 80 μL of a 0.5 μg/mL solution of anti-calprotectin rabbit polyclonal antibody in Na2HCO3 (0.2 M, pH 9.4). The plates were rinsed four times with 200 μL of washing buffer (25 mM Tris, 150 mM NaCl, 2 mM CaCl2, PH 7.4, with 0.05% v/v Tween-20) per well. Then, all the wells were blocked by incubation with 300 μL of blocking buffer (25 mM Tris, 150 mM NaCl, pH 7.4, with 0.05% v/v Tween-20 and 3% w/v BSA) for 1 h at room temperature with shaking. After this time, the blocking buffer was removed and 80 μL of calprotectin was added in dilution buffer (wash buffer with 1% w/v BSA) for 1h at room temperature with shaking. The wells were washed 4 times with washing buffer. […] The solution was removed and the wells were washed 6times with washing buffer. 80 μL of TMB substrate (ready to use solution, SigmaAldrich) were added for 30 minutes and the reaction was stopped with 40 μL of sulfuric acid (2 M). The absorbance was read at 450 nm in a microwell plate reader (Infinite M200Pro, Tecan).

[3] = system: Calprotectin; assay: Surface plasmon resonance (Biacore 8K) with immobilized Calprotectin; assay type: binding, human; conditions: highest concentration tested (500 nM)
Description: In order to complement and validate the results obtained by FP, binding responses and kinetics of peptides with immobilized Calprotectin were analysed by SPR. The experiments were performed using a Biacore™ 8K instrument (GE Healthcare). Calprotectin (at 5 μg/mL) was dissolved in 10 mM acetate buffer (pH 5.0) and immobilized on a CM5 series S chip by standard amine coupling method in running buffer (10 mM HEPES pH 7.4, 150 mM NaCl, 2 mM CaCl2, and 0.005% v/v Tween-20) at 25° C. Typical immobilization levels were 3000 resonance units (RUs). Reference cell was treated in the same way but without the injection of protein. A single concentration for each peptide (500 nM) was injected in running buffer (10 mM HEPES pH 7.4, 150 mM NaCl, 2 mM CaCl2, 0.005% v/v Tween-20 and 0.5% v/v DMSO) to measure the binding level. For the measurement of binding kinetics and dissociation constants, five serial dilutions (3-fold) of peptides were prepared in running buffer (with 0.5% DMSO) and analysed in single cycle kinetics mode with the contact and dissociation times of 90 s and 120 s, respectively.
The structure-activity relationship (SAR) analysis of Peptide 3 was assessed by synthesizing a large number of variants of Peptide 3 in which only one amino acid was altered at a time and the binding affinity was measured by surface plasmon resonance (SPR) and fluorescence polarization (FP).

## CTQSPCPLYDSHQCSCK (cyclised or stapled)
[1]
  affinity to recombinant calprotectin (in words): excellent binding affinity

## ACRTCPLFTCPSCG (not fully specified; cyclised or stapled)
[1]
  affinity to recombinant calprotectin (in words): excellent binding affinity

## TCPLNRTQCPLYACTTCP (not fully specified; cyclised or stapled)
[1]
  affinity to recombinant calprotectin (in words): excellent binding affinity

## CQCPWDLFSQHSLSDCCD (cyclised or stapled)
[1]
  affinity to recombinant calprotectin (in words): excellent binding affinity

## SCQCPWDLFSQHSLSDCCD (cyclised or stapled)
[1]
  affinity to recombinant calprotectin (in words): excellent binding affinity

## VCPCPLFRAHGCSRFSCQ (not fully specified; cyclised or stapled)
[1]
  affinity to recombinant calprotectin (in words): excellent binding affinity

## VCQQTASRCPVWECQRCP (not fully specified; cyclised or stapled)
[1]
  affinity to recombinant calprotectin (in words): excellent binding affinity

## WCTQSPCPLYDSHQCSCK (not fully specified; cyclised or stapled)
[1]
  affinity to recombinant calprotectin (in words): excellent binding affinity

## GCDLAHQPCPLYKCTKCP (cyclised or stapled)
[1]
  affinity to recombinant calprotectin (in words): excellent binding affinity

## RSPESVAFPMFQSHWYSG [linear peptide 3, fully linear peptide comprising only serines instead of cysteines]
[1]; listed as RSPESVAFPMFQSHWYSG
  affinity to recombinant calprotectin (in words): excellent binding affinity
[1]; listed as fully linear peptide
  affinity to recombinant calprotectin (in words): comparable affinities

## Strep-HRP biotinylated peptide complex: linear peptide 3-biotin pre-mixed with streptavidin conjugated horse radish peroxidase (RSPESVAFPMFQSHWYSG; also: biotin, end not given here, non-covalent complex with streptavidin-HRP)
[2]
  detectable calprotectin concentration: below 5 nM

## RCPECVAFPMFQCHWYCG [peptide 3]
[1]
  affinity to recombinant calprotectin (in words): excellent binding affinity
[3]
  SPR signal change: ~40 response units
